Test results reported in paper PMC8253140 (Drug Delivery, 2017).
Where two headings read alike, the source gives them in different places. Residues, ends and D or L forms follow the SMILES beside them. No end group written: not given here. *: point of attachment. Paclitaxel(2'-O-succinyl) = CC(=O)O[C@H]1C(=O)[C@@]2(C)[C@H]([C@H](OC(=O)c3ccccc3)[C@]3(O)C[C@H](OC(=O)[C@H](OC(=O)CCC(=O)*)[C@@H](NC(=O)c4ccccc4)c4ccccc4)C(C)=C1C3(C)C)[C@]1(OC(C)=O)CO[C@@H]1C[C@@H]2O

Assays:
[1] = system: A549 cells; assay: Cytotoxicity study, MTT colorimetric assay; conditions: for IC50 value as % of the IC50 of PTX / cell viability: 24 h; for IC50 value as % of the IC50 of PTX: GraphPad Prism, p < 0.01 vs PTX
Procedure: The inhibitory activities of the drug samples on cell growth were evaluated using a 3-(4,5-dimethylthiazol-2-yl)-2,5-diphenyltetrazolium bromide (MTT) colorimetric assay. A549 and A549T cells were harvested by trypsinization and resuspended at a concentration of 2 × 10^4 cells/mL in fresh culture medium. Then, the cells were seeded at a density of 5000 cells per well in 96-well plates. […] The concentration of the drugs ranged from 0.1 μM to 100 μM. After 24 h of incubation, the drug-containing media were abandoned, and 20 μL of MTT (5 mg/mL) solution was added to each well. The plate was incubated for an additional 4 h, and then, […] of DMSO was added to each well to dissolve any formed purple formazan crystals. The plates were vigorously shaken before measuring the relative color intensity. The absorbance at 570 nm of each well was measured with a plate reader.

[2] = system: A549T cells; assay: Cytotoxicity study, MTT colorimetric assay; assay type: cell-based; conditions: for IC50 value as % of the IC50 of PTX: GraphPad Prism, p < 0.01 vs PTX
Procedure: The inhibitory activities of the drug samples on cell growth were evaluated using a 3-(4,5-dimethylthiazol-2-yl)-2,5-diphenyltetrazolium bromide (MTT) colorimetric assay. A549 and A549T cells were harvested by trypsinization and resuspended at a concentration of 2 × 10^4 cells/mL in fresh culture medium. Then, the cells were seeded at a density of 5000 cells per well in 96-well plates. […] The concentration of the drugs ranged from 0.1 μM to 100 μM. After 24 h of incubation, the drug-containing media were abandoned, and 20 μL of MTT (5 mg/mL) solution was added to each well. The plate was incubated for an additional 4 h, and then, 200 mL of DMSO was added to each well to dissolve any formed purple formazan crystals. The plates were vigorously shaken before measuring the relative color intensity. The absorbance at 570 nm of each well was measured with a plate reader.

[3] = system: A549 cells; assay: Cell apoptosis detection, annexin V-FITC/PI flow cytometry; assay type: cell-based; conditions: 10 μM, 48 h, triplicate
Procedure: (§1) Cell apoptosis was determined by an annexin V-FITC/PI assay. The externalization of phosphatidylserine, a result of early stage apoptosis, was detected by FITC-annexin V protein staining, and the membrane damage due to late-stage apoptosis was detected by the binding of PI to nuclear DNA. Briefly, 2 × 10^5 A549 and A549T cells were plated in 6-well plates and incubated for 24 h. After exposure to the different drugs at a concentration of 10 μM for 48 h, the cells were harvested by trypsinization, washed in PBS twice and incubated in the dark for 10 min at room temperature in 500 μL of binding buffer containing annexin V-FITC (1 μg/mL) and PI (1 μg/mL). The cells were immediately analyzed by flow cytometry (Becton Dickinson, Franklin Lakes, NJ). The fluorescence intensity of annexin V-FITC was measured at an excitation/emission wavelength of 488/530 nm and that of PI was measured at an excitation/emission wavelength of 488/617 nm. Approximately 10 000 cells were analyzed in each of the samples. Each assay was repeated in triplicate.

[4] = system: A549T cells; assay: as above; assay type: cell-based; conditions: 10 μM, 48 h, triplicate
Procedure: as §1

[5] = system: A549T cells; assay type: cell-based; conditions: 5 μM, 48 h, triplicate
Procedure: (§2) After that, the cells were harvested by trypsinization, washed in PBS twice, and fixed in 70% cold ethanol for 24 h at 4 °C. The fixed cells were washed in cold PBS and then resuspended in 0.5 mL of PBS containing 50 μg/mL PI, 0.1% Triton-X-100, 0.1% sodium citrate, and 100 μg/mL RNase. After incubation at 4 °C in the dark for 30 min, the fluorescence-activated cells were sorted. The cellular DNA content was analyzed by flow cytometry (Becton Dickinson, Franklin Lakes, NJ). Each analysis contained at least 10 000 cells. […] The percentages of cells in different cell cycle phases were then recorded. Each experiment was performed in triplicate, and the results were expressed as the mean ± SD.

[6] = system: A549 tumor; assay type: in vivo, BALB/c nude mice; conditions: A549 tumor-bearing nude mice, 1000 μM, 100 μL, peritumoral injection three times over 8 d; for decrease of tumor volume compared with PTX: from 22 to 30 d; for decrease of tumor volume compared with PTX / tumor inhibition rate: six mice per group; for tumor inhibition rate: tumors dissected and weighed after 24 or 30 d
Text: (§3) The protocol to evaluate the in vivo antitumor efficacy of the PTX-CPP conjugates was approved by the ethics committee of Fudan University. Four-week-old female BALB/c nude mice were purchased and housed in the Animal Care Facilities in the School of Pharmacy, Fudan University. BALB/c mice bearing subcutaneous tumors were used as an animal model for the evaluation of the anticancer activities of PTX-LMWP and PTX-TAT. The subcutaneous tumor xenograft model was established by inoculating 2 × 10^6 A549 or A549T cells (in 100 μL of cell culture medium) into the subcutaneous tissue of the armpit of the right anterior limb (Gu et al., [2014]). Tumor size was measured with Vernier calipers for the largest (length) and smallest (width) superficial visible diameters of the protruding tumor mass through the skin. Tumor volumes were calculated according to the following formula: volume = 0.52 × W^2×L, where W and L represent the width and the length, respectively (Lee et al., [2011]). The drugs were administered 2 weeks after tumor implantation, when the size of the tumors reached approximately 100–150 mm^3. […] Each experimental group contained six mice. The mice were treated (100 μL volume) three times over 8 d via peritumoral injection. Tumor volumes were measured at 2-d intervals. At the end of the experiment, the mice were sacrificed, and necropsies were performed. The tumors were removed, weighed and fixed with formalin.

[7] = system: A549T tumor; assay type: in vivo, BALB/c nude mice; conditions: 1000 μM
Text: as §3

[8] = system: A549 cells; assay: Cell-cycle analysis, PI flow cytometry; assay type: cell-based; conditions: 5 μM, 48 h, triplicate
Procedure: as §2

[9] = system: A549 cells; assay: Cellular uptake assay (intracellular drug accumulation); assay type: cell-based; conditions: 20 μM, incubation 15 min to 4 h, UPLC
Procedure: The cellular uptake experiment was implemented basing on the protocol designed by Meng with some modifications (Meng et al., [2011]). Briefly, A549 and A549T cells were cultivated in chambered 24-well plates with 5% CO2 at 37 °C for 48 h. Then, the adherent cells were washed twice with PBS. Each of the three drugs was diluted in cell medium at concentrations of 10 μM and 20 μM and added to the chambers. The cells were incubated for 2 h and washed four times with PBS after incubation. After that, the cells were scraped from the wells and quantitatively transferred to Eppendorf centrifuge tubes. The resulting cell/saline suspensions were sonicated for 20 cycles of 2 s each with 2 s of rest between each cycle using a probe sonicator. The lysed cell solution was centrifuged at 7000 g for 30 min at 4 °C. Then, 100 μL of the supernatant was withdrawn carefully and tested with UPLC (BEH C18, 1.7 μm, 2.1 × 50 mm). The flow rate was 0.3 mL/min, and the mobile phase consisted of 55% solvent A (PBS, pH = 5) and 45% solvent B (acetonitrile). To further test the change in cellular uptake against incubation time, the drugs (20 μM) were added to the cells, and the cells were then incubated for different times, ranging from 15 min to 4 h. The other steps of the experiment were performed as described above.

[10] = system: A549T cells; assay: Mitochondrial membrane potential (Δψm) determination, JC-1 flow cytometry; assay type: cell-based; conditions: 10 μM, 48 h, triplicate
Procedure: Changes in the mitochondrial membrane potential (Δψm) were detected using JC-1 and analyzed with flow cytometry. Briefly, A549 and A549T cells were seeded at a density of 1 × 10^5 cells/mL in 6-well plates and exposed to the drugs (10 μM) for 48 h. The control experiments were performed by adding only culture medium. Then, the cells were harvested by trypsinization, washed in PBS twice, incubated with JC-1 ([…]) at 37 °C for 10 min in the dark, and finally analyzed by flow cytometry (Becton Dickinson, Franklin Lakes, NJ). Each assay was repeated in triplicate. JC-1 accumulates in mitochondria that have a high membrane potential and then dimerizes due to the high local concentrations achieved. Dimerized JC-1 emits red fluorescence, while monomeric JC-1 emits green fluorescence. The results are expressed as a ratio of red to green fluorescence.

[11] = A549T tumor-bearing nude mice, 100 μL, peritumoral injection three times over 8 d

Compound | IC50 value as % of the IC50 of PTX ([1]; A549 cells, MTT) [%] | IC50 value as % of the IC50 of PTX ([2]; A549T cells, MTT, 24 h) [%] | percentage of late apoptotic cells (PI+/annexin V+) [3] [%] | percentage of early apoptotic cells (PI−/annexin V+) [4] [%] | percentage of late apoptotic cells (PI+/annexin V+) [4] [%] | effect on cell-cycle distribution [5] | decrease of tumor volume compared with PTX [6] | tumor inhibition rate [6] [%] | tumor growth (tumor volume) compared with the control [7, 11] | tumor inhibition rate ([7]; mouse, in vivo) [%] | other results
CC(=O)O[C@H]1C(=O)[C@@]2(C)[C@H]([C@H](OC(=O)c3ccccc3)[C@]3(O)C[C@H](OC(=O)[C@H](OC(=O)CCC(=O)NCCN4C(=O)CC(SC[C@H](N)C(=O)NCC(=O)NCC(=O)NCC(=O)N[C@@H](Cc5ccc(O)cc5)C(=O)NCC(=O)N[C@@H](CCCNC(=N)N)C(=O)N[C@@H](CCCCN)C(=O)N[C@@H](CCCCN)C(=O)N[C@@H](CCCNC(=N)N)C(=O)N[C@@H](CCCNC(=N)N)C(=O)N[C@@H](CCC(N)=O)C(=O)N[C@@H](CCCNC(=N)N)C(=O)N[C@@H](CCCNC(=N)N)C(=O)N[C@@H](CCCNC(=N)N)C(=O)O)C4=O)[C@@H](NC(=O)c4ccccc4)c4ccccc4)C(C)=C1C3(C)C)[C@]1(OC(C)=O)CO[C@@H]1C[C@@H]2O (stereo partly shown) [PTX-TAT] | 47.2 | 39.5 | 72.57 | 23.15 | 54.20 | higher tetraploid-G2/M phase arrest than those incubated with PTX | 1.51–1.77 fold | 63.32 | considerable antitumor effect | 42.47 | 
VSRRRRRRGGRRRR [LMWP, reference compound] |  |  |  |  |  |  |  |  |  |  | toxicity of the CPPs alone (cell viability) [1]: No harmful effect; toxicity of the CPPs alone (cell viability) [2]: No harmful effect
CC(=O)O[C@H]1C(=O)[C@@]2(C)[C@H]([C@H](OC(=O)c3ccccc3)[C@]3(O)C[C@H](OC(=O)[C@H](O)[C@@H](NC(=O)c4ccccc4)c4ccccc4)C(C)=C1C3(C)C)[C@]1(OC(C)=O)CO[C@@H]1C[C@@H]2O [PTX, Paclitaxel, reference compound] |  |  | 13.03 |  |  | a large number of A549T cells were induced into tetraploids |  | 31.06 | no significant difference in the tumor volumes between the control and PTX groups |  | cell viability ([1]; A549 cells, MTT, concentration below 1 nM): higher than 80%; cell viability ([1]; A549 cells, MTT, concentrations from 100 nM to 100 000 nM): 40%; effect on cell viability ([2]; A549T cells, MTT, 24 h, concentrations below 1000 nM): no effect on cell viability; effect on cell-cycle distribution [8]: substantially increased the percentages of cells in G2/M phase cell-cycle arrest; tumor growth (tumor volume) compared with the control [6]: significant antitumor effect; tumor inhibition rate ([7]; A549T tumor-bearing nude mice, 100 μL, peritumoral injection three times over 8 d, tumors dissected and weighed after 24 or 30 d, six mice per group): 11.0%
CC(=O)O[C@H]1C(=O)[C@@]2(C)[C@H]([C@H](OC(=O)c3ccccc3)[C@]3(O)C[C@H](OC(=O)[C@H](OC(=O)CCC(=O)N[C@H](C(=O)N[C@@H](CO)C(=O)N[C@@H](CCCNC(=N)N)C(=O)N[C@@H](CCCNC(=N)N)C(=O)N[C@@H](CCCNC(=N)N)C(=O)N[C@@H](CCCNC(=N)N)C(=O)N[C@@H](CCCNC(=N)N)C(=O)N[C@@H](CCCNC(=N)N)C(=O)NCC(=O)NCC(=O)N[C@@H](CCCNC(=N)N)C(=O)N[C@@H](CCCNC(=N)N)C(=O)N[C@@H](CCCNC(=N)N)C(=O)N[C@@H](CCCNC(=N)N)C(=O)O)C(C)C)[C@@H](NC(=O)c4ccccc4)c4ccccc4)C(C)=C1C3(C)C)[C@]1(OC(C)=O)CO[C@@H]1C[C@@H]2O [PTX-LMWP] ({Paclitaxel(2'-O-succinyl)}-VSRRRRRRGGRRRR-OH; N-terminus and C-terminus assumed) | 33.5 | 21.5 | 84.03 | 38.10 | 55.75 | limited generation of tetraploids but a large number of cells in diploid-S phase cell-cycle arrest | 1.45–1.80 fold | 62.92 | considerable antitumor effect | 43.13 | cellular uptake against incubation time [9]: stronger than that of PTX-TAT; IC50 value compared with PTX-TAT ([2]; A549T cells, MTT, p < 0.01): remarkably lower than that of PTX-TAT; effect on mitochondrial membrane potential (Δψm), ratio of red to green JC-1 fluorescence [10]: significant breakdown of the Δψm compared with the PTX-TAT treatment
N=C(N)NCCC[C@H](NC(=O)[C@H](CCCNC(=N)N)NC(=O)[C@H](CCCNC(=N)N)NC(=O)[C@H](CCC(N)=O)NC(=O)[C@H](CCCNC(=N)N)NC(=O)[C@H](CCCNC(=N)N)NC(=O)[C@H](CCCCN)NC(=O)[C@H](CCCCN)NC(=O)[C@H](CCCNC(=N)N)NC(=O)CNC(=O)[C@H](Cc1ccc(O)cc1)NC(=O)CNC(=O)CNC(=O)CNC(=O)[C@@H](N)CS)C(=O)O [TAT, reference compound] |  |  |  |  |  |  |  |  |  |  | toxicity of the CPPs alone (cell viability) ([1]; A549 cells, MTT, same molar concentrations as PTX): No harmful effect; toxicity of the CPPs alone (cell viability) ([2]; A549T cells, MTT, same molar concentrations as PTX): No harmful effect
